According to PubChem BioAssay (NCI):
“And” between values parts separate entries of the source, which are not always exact repeats. Equal entries are not always repeated.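 Five concentrations, 48 hours, 96-well plates. Here, GI50 denotes the concentration required for 50% inhibition of growth. At the TGI there is no net growth.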

Each compound was assayed on MDA-MB-468 breast (assay: growth of human tumour cells (NCI), 48 h).

| SMILES | GI50 | TGI |
| --- | --- | --- |
| C/C(=C\CCc1ccoc1)CC/C=C(\C)CCCN1CCOCC1 | 2.58 µM | 9.59 µM |
| O=C1Nc2c(C(F)(F)F)cccc2[C@@]1(c1ccc(O)cc1)c1ccc(OC(F)(F)F)cc1 | < 0.01 µM | < 0.01 µM |
| CCCCCCCCN(CCCCCCCC)CCCCCCNc1cc(OC)cc2cccnc12 | 3.71 µM | 13.5 µM |
| C[C@H](Nc1ncnc2nc[nH]c12)c1cc2ccc(F)cc2nc1-c1ccccn1 | 31.9 µM | > 100 µM |
| Nc1nc(OCc2cc(Br)cs2)c2[nH]cnc2n1 | 14 µM | 58.6 µM |
| Cn1cc(C2=C(c3cn(C)c4c([N+](=O)[O-])cccc34)C(=O)NC2=O)c2ccccc21 | > 25 µM | > 25 µM |
| Cc1ccc(-c2cc3c(SCC(=O)Nc4cc(C(F)(F)F)ccc4Cl)nccn3n2)cc1 | > 100 µM | > 100 µM |
| c1cc2[nH]ncc2cc1-c1nc2ccc3[nH]ncc3c2c2c1CCCC2 | 0.403 µM | 3.16 µM |
| CN(Cc1cc(Br)cc(Br)c1O)Cc1cc(Br)cc(Br)c1O | 2.09 µM | 13 µM |
| COC1CCN(C(=O)c2cc(Cc3n[nH]c(=O)c4ccccc34)ccc2F)CC1 | 30 µM | > 100 µM |
| COc1ccc(C(=O)COC(=O)[C@H](C[Se][Se]C[C@H](NC(=O)c2ccc(Br)cc2F)C(=O)OCC(=O)c2ccc(OC)cc2)NC(=O)c2ccc(Br)cc2F)cc1 | 1.72 µM | 3.85 µM |
| [O-][n+]1ccccc1S | 4.15 µM | 45.2 µM |
| CCCCCCCCCCCCCC1=NCCN1CCO | 2.12 µM | 5.58 µM |
| Cc1cc(O)ccc1C1=NN(c2ccc(S(C)(=O)=O)cc2)C(=O)CC1 | 11 µM | 44.3 µM |
| NC1CCC(Nc2nc(NCc3ccc(-c4cccs4)nc3)c3ncn(C4CCCC4)c3n2)CC1 (stereo not drawn) | < 0.0134 µM | 0.035 µM |
| COc1ccc2c(c1)[nH]c(=O)c1c3cc(OC)ccc3cn21 | 0.0393 µM | 1.16 µM |
| NC(=O)c1ccc(NN=O)nc1 | > 100 µM | > 100 µM |
| Clc1ccc2c(c1)N(c1ncnc3ccc(-c4cnc5[nH]ccc5c4)cc13)CC2 | 0.38 µM | 13.7 µM |
| COc1ccc(C(=O)c2cc(OC)c(OC)c(OC)c2)cc1/C=C/C(=O)c1ccc(OC)c(OC)c1 | 1.25 µM | 77.7 µM |
| O=C1c2nsnc2C(=O)c2c(F)c(F)c(F)c(F)c21 | 0.672 µM | 2.32 µM |
| CS(=O)(=O)Nc1ccc(-c2cc(-c3ccccc3)cc(C(N)=O)c2N)cc1 | 14.5 µM | > 25 µM |
| CC(=O)c1cc(C(=O)c2ccc3c(c2)Sc2ccccc2N3)c2c(C)cc(C)cn12 | 0.496 µM | > 100 µM |
| COC(=O)[C@]12CC[C@@H](C)[C@H](C)[C@@H]1C1=CC[C@@H]3[C@@]4(C)C(C=O)=C[C@@](C)(COC(C)=O)C4=CC[C@@]3(C)[C@]1(C)CC2 | 4.21 µM | 17.7 µM |
| Cc1ccc(C(SCC(N)C(=O)O)(c2ccc(C)cc2)c2ccc(C)cc2)cc1 (stereo not drawn) | 1.46 µM | 16.6 µM |

| SMILES | GI50 | TGI |
| --- | --- | --- |
| O=C(c1ccccc1)c1ccc(Oc2ccc([N+](=O)[O-])cc2[N+](=O)[O-])cc1 | 1.73 µM | 3.38 µM |
| Cc1ccc(-c2cc(C(F)(F)F)nn2-c2ccc(S(N)(=O)=O)cc2)cc1 | 24.2 µM | 90.7 µM |
| Cc1ccccc1-n1ncc(C(=O)c2ccccc2)c1N | > 25 µM | > 25 µM |
| CCOC(=O)n1cc(C2=C(c3cn(C)c4ccccc34)COC2=O)c2ccccc21 | 0.053 µM | > 100 µM |
| Nc1nc2c(s1)CCc1c-2c(Br)n(Cc2ccccc2)c1Br | 2.84 µM | 17.2 µM |
| CC1(C)CCC2=C(O1)c1ccccc1C(=O)C2=O | 1.68 µM | 3.36 µM |
| Nc1ncc(-c2ccc3ncnc(N4CCc5cc(F)c(Cl)cc54)c3c2)cn1 | 0.804 µM | 3.04 µM |
| COc1cc2nc(SCC(=O)Nc3cc(OC)c(OC)c(OC)c3)n(Cc3ccccc3)c(=O)c2cc1OC | 5.72 µM | 20.2 µM |
| COc1cc(-c2nc3ccccc3s2)ccc1NC(=O)COc1ccc(Cl)cc1 | 2.08 µM | 56.6 µM |
| COc1ccc(C(SCC(N)C(=O)O)(c2ccccc2)c2ccccc2)cc1 (stereo not drawn) | 0.0627 µM | > 78.1 µM |
| Clc1cccc(Cl)c1C1CSc2ccccc2N=C1c1ccccc1 (stereo not drawn) | 9.59 µM | 29.2 µM |
| CCN1C(=O)N(CC)C2Nn3c(s/c(=C\c4ccccc4Br)c3=O)=NC21 (stereo not drawn) | 1.1 µM | 6.87 µM |
| O=C(/C(=C\c1ccc([N+](=O)[O-])cc1)S(=O)Cc1ccc(F)cc1)c1ccc(F)cc1 (stereo not drawn) | 2.05 µM | 4.36 µM |
| O=C1NC(=O)C(=C/C=C/c2ccccc2)C(=O)N1 | 2.99 µM | 10.1 µM |
| O=[N+]([O-])c1ccccc1N/N=C\c1c[nH]c2ccccc12 | 1.13 µM | 5.85 µM |
| Cl.Fc1c[c-]c(-c2ccccn2)c(F)c1.[Pt].c1ccc(P(c2ccccc2)C([PH+](c2ccccc2)c2ccccc2)[PH+](c2ccccc2)c2ccccc2)cc1 | 2.69 µM | 19.5 µM |
| O=C1C(=O)c2c(nc3ccc(Br)cn23)-c2ccccc21 | 1.53 µM | 3.22 µM |
| CN(C)c1ccc(N=C2C=CC(=[N+](C)C)C=C2)cc1 | 3.04 µM | 12.2 µM |
| CCCNNC(=O)c1ccc(-c2ccc(NC(=O)CCCCCCC(=O)N[C@H](C(=O)N3C[C@H](O)C[C@H]3C(=O)N[C@@H](C)c3ccc(-c4scnc4C)cc3)C(C)(C)C)cc2)cc1 | 0.592 µM |  |
| CC(C)(C)C(=O)OCOP(=O)(OCOC(=O)C(C)(C)C)C1CC(O)N(O)C1=O (stereo not drawn) | 5.84 µM | > 100 µM |
| C=CC(=O)NCc1cccc(Nc2ncc(Br)c(NCCCNC(=O)C3CCC3)n2)c1 | 1.64 µM and 1.02 µM | 4.33 µM and 5 µM |
| Clc1ccc2c(c1)N(CCCN1CCCC1)c1ccccc1S2 | 2.75 µM | 8.05 µM |
| CC1=CC(=C(c2ccc(N)cc2)c2ccc(N)cc2)C=CC1=N | 0.373 µM and 0.411 µM | 4.9 µM and 4.3 µM |
